Measurements: publication PMC10840350 (Redox Biology, 2024)

Legend:
[1] = target: T1, TXNRD1 (thioredoxin reductase 1) (Rattus norvegicus, UniProt O89049); assay: […] min incubation, residual activity by DTNB reduction assay; format: biochemical; details: 0.25 h, read-out: % residual activity at 0.5 μM
T1 sequence (O89049 1-499): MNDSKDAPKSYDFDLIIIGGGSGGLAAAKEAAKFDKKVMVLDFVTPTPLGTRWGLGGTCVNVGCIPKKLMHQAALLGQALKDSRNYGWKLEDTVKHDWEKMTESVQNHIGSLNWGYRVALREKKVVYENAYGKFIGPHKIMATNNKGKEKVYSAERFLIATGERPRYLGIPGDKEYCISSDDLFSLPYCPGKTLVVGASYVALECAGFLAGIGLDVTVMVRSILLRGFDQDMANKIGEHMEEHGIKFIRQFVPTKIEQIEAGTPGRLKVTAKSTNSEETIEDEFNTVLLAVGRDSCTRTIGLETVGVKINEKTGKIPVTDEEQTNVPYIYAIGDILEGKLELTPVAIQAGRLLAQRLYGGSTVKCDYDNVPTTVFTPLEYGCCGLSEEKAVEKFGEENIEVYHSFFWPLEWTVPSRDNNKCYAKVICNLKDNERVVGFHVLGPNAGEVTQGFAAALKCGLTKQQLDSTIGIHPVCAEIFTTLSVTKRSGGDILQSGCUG

[2] = target: T1, TXNRD1 (thioredoxin reductase 1); assay: as above; format: biochemical

## COc1ccc([N+](=O)[O-])c(S(=O)(=O)c2ccc(Cl)cc2)n1 [TRi-1]
[1]
  remaining activity at 0.5 µM: ~30%

## [NH2][Pt]([NH2])([Cl])[Cl] [cisplatin]
[2]
  60 min incubation, residual activity by DTNB reduction assay: the inhibition of auranofin and cisplatin on TXNRD1 is not significantly affected by guiding bar mutants
